# Measured values reported in ChEMBL document CHEMBL1201862, “PubChem BioAssay data set” (2004).
#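 A five-concentration, 48-hour dose response in 96-well plates underlies each endpoint, interpolated linearly between surrounding concentrations. Here, GI50 denotes the concentration required for 50% inhibition of growth.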 Calls of active or inactive are those of the source. No stated cut-off is given here; in the data, active = GI50 up to about 1.1 µM and inactive = higher.
# Assays:
# Assay in all cases: growth of human tumour cells (NCI), 48 h
# [1] = system: OVCAR-5
# [2] = system: U-251
# [3] = system: SK-OV-3
# [4] = system: OVCAR-4
# [5] = system: OVCAR-8
# [6] = system: NCI-H522
# [7] = system: PC-3
# [8] = system: HCC 2998
# [9] = system: NCI-H226
# [10] = system: SK-MEL-28
# [11] = system: HCT-15
# [12] = system: HCT-116
# [13] = system: SW-620
# [14] = system: A498
# [15] = system: Malme-3M
# [16] = system: Hs-578T
# [17] = system: HT-29
# [18] = system: SF-268
# [19] = system: SK-MEL-2
# [20] = system: DU-145
# [21] = system: MDA-MB-231
# [22] = system: UACC-257
# [23] = system: SNB-19
# [24] = system: SF-539
# [25] = system: UACC-62
# [26] = system: TK-10
# [27] = system: MDA-MB-435
# [28] = system: RPMI-8226
# [29] = system: NCI/ADR-RES
# [30] = system: SR
# [31] = system: ACHN
# [32] = system: SN12C
# [33] = system: OVCAR-3
# [34] = system: LOX IMVI
# [35] = system: MCF7
# [36] = system: CCRF-CEM
# [37] = system: SF-295
# [38] = system: NCI-H460
# [39] = system: A549
# [40] = system: CAKI-1
# [41] = system: MDA-N
# [42] = system: NCI-H23
# [43] = system: SK-MEL-5
# [44] = system: BT-549
# [45] = system: RXF 393
# [46] = system: COLO 205
# [47] = system: M14
# [48] = system: T47D
# [49] = system: MOLT-4
# [50] = system: HOP-62
# [51] = system: IGROV-1
# [52] = system: HOP-92
# [53] = system: 786-0
# [54] = system: UO-31
# [55] = system: HL-60
# [56] = system: SNB-75
# [57] = system: EKVX
# [58] = system: KM12
smiles,measurement,setting,value
c1ccc(-c2nc(-c3ccccc3)c(-c3ccccc3)[nH]2)cc1,GI50,[1],> 100 µM (inactive)
same,GI50,[2],42.3 µM (inactive)
same,GI50,[3],> 100 µM (inactive)
same,GI50,[4],85.9 µM (inactive)
same,GI50,[5],> 66.1 µM (inactive)
same,GI50,[6],> 82.6 µM (inactive)
same,GI50,[7],> 100 µM (inactive)
same,GI50,[8],> 100 µM (inactive)
same,GI50,[9],> 100 µM (inactive)
same,GI50,[10],> 100 µM (inactive)
same,GI50,[11],> 100 µM
same,GI50,[12],71.9 µM (inactive)
same,GI50,[13],> 100 µM (inactive)
same,GI50,[14],> 100 µM (inactive)
same,GI50,[15],36.1 µM (inactive)
same,GI50,[16],23.9 µM (inactive)
same,GI50,[17],> 94.6 µM (inactive)
same,GI50,[18],55.2 µM (inactive)
same,GI50,[19],> 100 µM (inactive)
same,GI50,[20],> 100 µM (inactive)
same,GI50,[21],> 72.6 µM (inactive)
same,GI50,[22],> 85.5 µM (inactive)
same,GI50,[23],> 100 µM (inactive)
same,GI50,[24],> 100 µM (inactive)
same,GI50,[25],> 94.4 µM (inactive)
same,GI50,[26],> 100 µM (inactive)
same,GI50,[27],> 100 µM (inactive)
same,GI50,[28],> 47.6 µM (inactive)
same,GI50,[29],60.3 µM (inactive)
same,GI50,[30],17.5 µM (inactive)
same,GI50,[31],> 100 µM (inactive)
same,GI50,[32],> 87.5 µM (inactive)
same,GI50,[33],> 100 µM (inactive)
same,GI50,[34],> 100 µM (inactive)
same,GI50,[35],70.3 µM (inactive)
same,GI50,[36],17 µM (inactive)
same,GI50,[37],> 100 µM (inactive)
same,GI50,[38],44.9 µM (inactive)
same,GI50,[39],> 100 µM (inactive)
same,GI50,[40],> 100 µM (inactive)
same,GI50,[41],> 88.7 µM (inactive)
same,GI50,[42],> 100 µM (inactive)
same,GI50,[43],> 100 µM (inactive)
same,GI50,[44],> 100 µM (inactive)
same,GI50,[45],> 100 µM (inactive)
same,GI50,[46],> 100 µM (inactive)
same,GI50,[47],> 100 µM (inactive)
same,GI50,[48],42.3 µM (inactive)
same,GI50,[49],> 35.8 µM (inactive)
same,GI50,[50],> 85.5 µM (inactive)
same,GI50,[51],> 91.6 µM (inactive)
same,GI50,[52],> 100 µM (inactive)
same,GI50,[53],54 µM (inactive)
same,GI50,[54],> 100 µM (inactive)
same,GI50,[55],18.1 µM (inactive)
same,GI50,[56],75 µM (inactive)
same,GI50,[57],> 83.6 µM (inactive)
same,GI50,[58],> 93.8 µM (inactive)
